Experimental data as given in US8569339B2, “Soluble guanylate cyclase activators” (Boehringer Ingelheim International GmbH, priority 2011, dated 2013).
In brackets after ≈: the same amount, converted by molar mass.

Tests used:
[1] = Assessment of solubility (HT solubility, pION, UV); format: physicochemical; settings: incubated 16-19 hours, 1.0% DMSO, 100 uM; for solubility kinetic: pH 4.5 buffer (pION system solution), pH 4.5, aqueous buffer, kinetic from dmso stock, pH 4.5 buffer, read-out: Sol pH 4.5; for Sol pH 7.4: pH 7.4 buffer
Method in brief: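 Compounds were taken from 10 mM DMSO stocks into pH 4.5 or pH 7.4 buffer at 100 uM final (1.0% DMSO), run in duplicate, and incubated sealed for 16-19 h. Filtrates were diluted with N-propanol and read by UV at 250-498 nm against blank and reference spectra, […].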

[2] = molecular target: T1, Recombinant human soluble guanylate cyclase (sGC) (Homo sapiens, UniProt Q02153); experiment: Molecular assay: activation of heme-free sGC, cGMP detection (CisBio kit); format: biochemical; settings: 300 pM heme-free sGC, 37° C., 60 minutes, cGMP formation
T1 construct: histidine tag (C); made in house; host or cells: Sf9 insect cells (baculovirus coinfection)
Method in brief: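 Heme-free human α1/β1 sGC (His-tagged, Sf9-expressed, Tween 20-treated) at 300 pM incubated with compound in pH 6.8 MOPS buffer with 50 nM GTP, IBMX, 1% DMSO, 60 min at 37 °C. cGMP quantified by HTRF against a calibration curve; EC50 from combined undiluted and 80-fold diluted readings.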

T1 sequence (Q02108 whole entry partner): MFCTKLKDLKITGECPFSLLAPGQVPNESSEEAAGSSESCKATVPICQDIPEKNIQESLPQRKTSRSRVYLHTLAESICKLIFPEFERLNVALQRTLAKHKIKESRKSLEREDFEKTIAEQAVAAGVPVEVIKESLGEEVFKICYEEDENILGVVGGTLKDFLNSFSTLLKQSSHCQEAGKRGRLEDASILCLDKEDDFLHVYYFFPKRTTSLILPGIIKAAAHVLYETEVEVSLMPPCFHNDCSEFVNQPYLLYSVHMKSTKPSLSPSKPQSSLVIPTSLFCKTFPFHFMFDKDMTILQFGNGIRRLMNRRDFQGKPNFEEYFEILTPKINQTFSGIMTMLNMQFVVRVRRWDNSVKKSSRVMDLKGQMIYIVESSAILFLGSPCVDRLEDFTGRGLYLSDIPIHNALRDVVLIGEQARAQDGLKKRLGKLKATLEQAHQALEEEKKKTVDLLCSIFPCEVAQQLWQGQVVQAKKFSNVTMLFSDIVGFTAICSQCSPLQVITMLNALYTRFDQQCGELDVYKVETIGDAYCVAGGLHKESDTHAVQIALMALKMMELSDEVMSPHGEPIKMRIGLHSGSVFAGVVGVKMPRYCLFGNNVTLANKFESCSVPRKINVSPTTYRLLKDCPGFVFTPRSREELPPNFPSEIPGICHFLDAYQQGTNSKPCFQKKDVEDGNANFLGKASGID
T1 sequence (Q02153 whole entry): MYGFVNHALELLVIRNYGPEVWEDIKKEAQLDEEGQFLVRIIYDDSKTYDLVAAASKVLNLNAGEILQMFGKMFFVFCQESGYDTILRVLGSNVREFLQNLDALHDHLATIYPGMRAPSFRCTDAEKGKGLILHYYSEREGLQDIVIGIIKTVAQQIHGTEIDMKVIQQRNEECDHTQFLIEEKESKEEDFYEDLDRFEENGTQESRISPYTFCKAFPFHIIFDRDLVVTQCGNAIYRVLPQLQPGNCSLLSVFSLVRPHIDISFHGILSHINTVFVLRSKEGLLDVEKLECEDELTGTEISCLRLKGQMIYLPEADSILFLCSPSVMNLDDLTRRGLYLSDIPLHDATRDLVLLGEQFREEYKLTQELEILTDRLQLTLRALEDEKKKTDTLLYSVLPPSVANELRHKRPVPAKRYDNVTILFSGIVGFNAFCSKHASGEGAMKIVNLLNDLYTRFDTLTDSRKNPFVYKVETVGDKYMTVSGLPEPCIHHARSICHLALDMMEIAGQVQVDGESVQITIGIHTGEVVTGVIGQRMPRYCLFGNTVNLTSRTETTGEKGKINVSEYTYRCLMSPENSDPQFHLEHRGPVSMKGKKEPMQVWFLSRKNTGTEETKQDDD

For `Cc1cccc(-c2cccc(-c3nc(C)c(C(=O)O)s3)n2)c1OCc1ccc2c(c1)CCN(C1CCOCC1)C2` [Compound 59, 4-methyl-2-[6-[3-methyl-2-[(2-tetrahydropyran-4-yl-3,4-dihydro-1H-isoquinolin-6-yl)methoxy]phenyl]-2-pyridyl]thiazole-5-carboxylic acid], the solubility kinetic [1] was > 110 µg/mL, the “Sol pH 7.4” value [1] was >110 μg/mL and the EC50 [2] was 4200 nM.

For `Cc1ccc(OCc2ccc3c(c2C)CCN(CC2CCOC2)C3)c(-c2cccc(-c3csc(C(=O)O)c3C)n2)c1` (stereo not drawn) [Compound 14], the solubility kinetic [1] was > 79 µg/mL, the “Sol pH 7.4” value [1] was 44.4 μg/mL and the EC50 [2] was 11 nM.

In the case of `Cc1ccc(OCc2ccc3c(c2)CCN(CCc2ccccc2)C3)c(-c2cccc(-n3ncc(C(=O)O)c3C(F)(F)F)n2)c1` [Compound 20], the solubility kinetic [1] is reported as 7.8 µg/mL (≈ 12.7 µM), the “Sol pH 7.4” value [1] is reported as 10.7 μg/mL and the EC50 [2] is reported as 4 nM.

For `Cc1cccc(-c2cccc(-c3c(C)c(C(=O)O)nn3C3CC3)n2)c1OCc1ccc2c(c1)CCN(C1CCOCC1)C2` [Compound 91], the solubility kinetic [1] was > 69 µg/mL, the “Sol pH 7.4” value [1] was >69 μg/mL and the EC50 [2] was 160 nM.

With `Cc1cccc(-c2cccc(-n3cnc(C(=O)O)c3C)n2)c1OCc1ccc2c(c1C)CCN(Cc1ccccn1)C2` [Compound 56] the solubility kinetic [1] was > 65 µg/mL, the “Sol pH 7.4” value [1] was >65 μg/mL and the EC50 [2] was 31 nM.

In the case of `Cc1ccc(OCc2ccc3c(c2)CCN(C)C3)c(-c2cccc(-n3ncc(C(=O)O)c3C(F)(F)F)n2)c1` [Compound 2, 1-{6-[5-methyl-2-(2-methyl-1,2,3,4-tetrahydroisoquinolin-6-ylmethoxy)phenyl]pyridin-2-yl}-5-trifluoromethyl-1H-pyrazole-4-carboxylic acid], the solubility kinetic [1] is reported as 6.5 µg/mL (≈ 12.4 µM), the “Sol pH 7.4” value [1] is reported as 6.1 μg/mL and the EC50 [2] is reported as 46 nM.
